Test results reported in US9867862B2, “Compounds and method for treating or preventing disease conditions associated with alpha-1-antitrypsin” (AMICUS THERAPEUTICS, INC., priority 2010, dated 2018).
Blank lines part the entries; values can stand above or below the compound they belong to. Peptide text beside a SMILES is read from it.

What was measured:
ZAT [1] = target: T1, ZAT (Homo sapiens, UniProt P01009, E366K); assay: In vitro polymerization assay (native gel, western blot); assay type: biochemical; conditions: FIG. 3 western blot; peptides at 1 mM with Z-AT, 4 hours 37° C. then 30 minutes 62° C.; versus control (no peptide)
Procedure: An in vitro polymerization assay was employed to screen the ability of a pharmacological chaperone to inhibit polymerization. […] In brief, M-AT or Z-AT was incubated at 37° C. for 4 hours, followed by 30 minutes at 62° C. The samples were then run on a Bis-Tris native gel and either blotted onto PVDF or detected with colloidal blue staining. Peptides at 1 mM were incubated with equal amounts (50 ng) of Z-AT for 4 hours at 37° C., followed by a 62° C. pulse for 30 minutes. Samples were separated on a 4-12% Bis-Tris native gel, blotted onto PVDF and the blot probed with a human specific antibody for alpha-1-antitrypsin. Additionally, in the case of samples from human plasma, a western blot was performed to assess the level of alpha-1-antitrypsin. polymerization. The inducible HeLa cell line retains Z-AT intracellularly as little Z-AT can be detected in the media. The Z-AT contained in lysates is apparently not processed to complex N-glycans as the molecular weight is slightly lower than M-AT purified from plasma, which is consistent with the findings of others. The intracellular material is endo H sensitive indicative of high mannose N-linked glycans.

ZAT [2] = target: T1, ZAT; assay: Western blot of intracellular ZAT in ZAT inducible CHO cells; assay type: cell-based; set-up: expressed in transfected cells; host or cells: inducible serum-free CHO cells (tetracycline repressor control); conditions: for intracellular levels of ZAT, normalized densitometry: FIG. 14 graph
Procedure: Serum Free CHO and HeLa cells in which expression of Z-AT is under control of the tetracycline repressor were grown to confluence. To analyze the intra- and extracellular production of Z-AT, media was collected and cells were lysed in non-ionic detergent. Media and lysates were analyzed on a NuPAGE SDS gel followed by western blotting utilizing a human specific sheep anti-human alpha-1-antitrypsin polyclonal antibody.
Furthermore, two compounds, compounds V and VI, decrease intracellular levels of ZAT. These compounds are shown in Table 2, along with structural data for each compound. […] The levels of intracellular levels of ZAT are even lower when treated at the higher concentration. […] FIG. 13 depicts a western blot of intracellular levels of ZAT after 1mM treatment. […] FIG. 14 is a graph of showing intracellular levels of ZAT after 1mM treatment with compounds V and VI. […] FIG. 15 is an in vitro polymerization assay with compounds I-VI, as well as Ac-TTAI-NH2 (SEQ ID NO: 6), a vehicle control and non-treated alpha-1-antitrypsin. There is an increase in polymerization after treatment with the low-molecular weight compounds.

ZAT [3] = target: T1, ZAT; conditions: background studies; cited from earlier work
ZAT [4] = target: T1, ZAT; conditions: background studies; cited from earlier work; remark: listed apart in the source
alpha-1-antitrypsin = alpha-1-antitrypsin (Homo sapiens, UniProt P01009, E366K); assay: Alpha-1-antitrypsin elastase inhibition assay; assay type: biochemical
From the text: An elastase inhibition assay was developed to measure the effects of a test compound on the inhibitory activity of secreted Z-AT. In one embodiment, to detect elastase activity, bovine elastin was labeled with BODIPY, which causes the fluorescence of the conjugate to be quenched. This non-fluorescent substrate was digested by elastase to yield highly fluorescent fragments. Alternatively, the non-fluorescent substrate may be digested by another protease to yield fluorescent fragments. The activity of α-1-antitrypsin was monitored by measuring a decrease in fluorescent signal, indicative of the elastase inhibitory activity of α-1-antitrypsin. […] In one embodiment, the resulting fluorescence was monitored in a Perkin Elmer Victor V plate reader using absorption and emission filters for fluorescein […].
Additional cell lines to screen for pharmacologic chaperones and to identify surrogate markers of Z-AT expression were developed using an inducible promoter system. The inducible systems are useful for determining if particular chaperones need to be present prior to Z-AT translation in the endoplasmic reticulum to induce secretion of Z-AT and/or inhibit […]

ZAT [5] = target: T1, ZAT; assay: Extracellular alpha-1-antitrypsin activity in media of ZAT inducible CHO cells; assay type: cell-based; set-up: expressed in transfected cells; host or cells: inducible serum-free CHO cells (tetracycline repressor control); conditions: FIG. 11, increasing treatment
From the text: An elastase inhibition assay was developed to measure the effects of a test compound on the inhibitory activity of secreted Z-AT. In one embodiment, to detect elastase activity, bovine elastin was labeled with BODIPY, which causes the fluorescence of the conjugate to be quenched. This non-fluorescent substrate was digested by elastase to yield highly fluorescent fragments. Alternatively, the non-fluorescent substrate may be digested by another protease to yield fluorescent fragments. The activity of α-1-antitrypsin was monitored by measuring a decrease in fluorescent signal, indicative of the elastase inhibitory activity of α-1-antitrypsin. A test compound was added to determine its effect on the elastase inhibitory activity of α-1-antitrypsin. In one embodiment, the resulting fluorescence was monitored in a Perkin Elmer Victor V plate reader using absorption and emission filters for fluorescein […].
Serum free CHO cell lines were developed, expressing M-AT, Z-AT (Glu342Lys) and the S mutation (Glu264Val), so that secreted alpha-1-antitrypsin activity could be measured directly from media without interference from bovine, alpha-1-antitrypsin introduced into the media from serum. Briefly, cDNA was isolated by PCR from first strand human liver cDNA using conventional cloning methods. […]

[6] = 100 μM, FIG. 9 western blot, ZAT inducible CHO cells
[7] = 1 mM, FIG. 10 western blot, ZAT inducible CHO cells, compared with 100 μM

T1 sequence (P01009 25-418 E366K): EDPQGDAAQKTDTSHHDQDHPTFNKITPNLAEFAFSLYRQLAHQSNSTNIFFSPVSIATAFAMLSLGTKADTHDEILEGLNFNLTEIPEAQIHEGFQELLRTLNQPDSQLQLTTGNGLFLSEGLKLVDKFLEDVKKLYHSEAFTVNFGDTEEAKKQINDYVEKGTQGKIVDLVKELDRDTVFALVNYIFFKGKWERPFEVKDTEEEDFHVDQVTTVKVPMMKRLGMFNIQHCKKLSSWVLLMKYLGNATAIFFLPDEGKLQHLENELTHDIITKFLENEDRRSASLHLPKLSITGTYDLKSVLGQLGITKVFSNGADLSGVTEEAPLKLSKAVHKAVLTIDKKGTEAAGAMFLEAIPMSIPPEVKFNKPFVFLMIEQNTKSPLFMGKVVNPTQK
Sequence of alpha-1-antitrypsin (P01009 25-418 E366K): as above

Compound: CC(=O)NC(C(=O)NC(CO)C(=O)NC(C)C(=O)NC(C)C(N)=O)C(C)O (stereo not drawn) [Ac-TSAA-NH2, Ac-Thr-Ser-Ala-Ala-NH2] (Ac-TSAA-NH2; configuration not given here)
alpha-1-antitrypsin polymerization (ZAT [1]): significantly less alpha-1-antitrypsin polymerization

Compound: CC(=O)NC(C(=O)NC(CCC(=O)O)C(=O)NC(C)C(=O)NC(C)C(N)=O)C(C)O (stereo not drawn) [Ac-TEAA-NH2, Ac-Thr-Glu-Ala-Ala-NH2] (Ac-TEAA-NH2; configuration not given here)
alpha-1-antitrypsin polymerization (ZAT [1]): significantly less alpha-1-antitrypsin polymerization

intracellular levels of ZAT (ZAT [2]; [6]): lower levels of ZAT
intracellular levels of ZAT (ZAT [2]; [7]): even lower
intracellular levels of ZAT, normalized densitometry (ZAT [2]; 1 mM): Levels are lower
Compound: COc1ccc(C(O)C(=O)NNC(=O)N[C@H](C(N)=O)C(C)O)cc1O (stereo partly drawn) [Compound VI]
intracellular levels of ZAT (ZAT [2]; 1 mM, FIG. 13 western blot): significant reduction in ZAT levels intracellularly

Compound: O=C(O)CCCc1ccccc1 [4-phenylbutyric acid]
secretion of Z-AT from cells (ZAT [3]): can increase secretion of Z-AT from cells

Compound: O=C(O)CC(O)(CC(=O)O)C(=O)O [citrate]
in vitro polymerization of Z-AT (ZAT [4]): block in vitro polymerization of Z-AT

Compound: Ac-TTAI-NH2
in vitro polymerization of Z-AT (ZAT [4]): block in vitro polymerization of Z-AT

Compound: CC(=O)NC(C(=O)NC(CCC(=O)O)C(=O)NC(C)C(=O)NC(C)C(=O)NCC(N)=O)C(C)O (stereo not drawn) [Ac-TEAAG-NH2, Ac-Thr-Glu-Ala-Ala-Gly-NH2] (Ac-TEAAG-NH2; configuration not given here)
alpha-1-antitrypsin polymerization (ZAT [1]): significantly less alpha-1-antitrypsin polymerization

Compound: CC(=O)NC(C(=O)NC(CCC(=O)O)C(=O)NC(C(=O)NC(C)C(N)=O)C(C)C)C(C)O (stereo not drawn) [Ac-TEVA-NH2, Ac-Thr-Glu-Val-Ala-NH2] (Ac-TEVA-NH2; configuration not given here)
alpha-1-antitrypsin polymerization (ZAT [1]): significantly less alpha-1-antitrypsin polymerization
inhibition of elastase activity by alpha-1-antitrypsin in the presence of peptide (alpha-1-antitrypsin; FIG. 2): inhibits elastase activity significantly, in fact to a level comparable to that of wild type alpha-1-antitrypsin
inhibition of alpha-1-antitrypsin activity by the peptide (alpha-1-antitrypsin; at concentrations required to inhibit polymerization): does not inhibit alpha-1-antitrypsin activity

intracellular levels of ZAT (ZAT [2]; [6]): lower levels of ZAT
intracellular levels of ZAT (ZAT [2]; [7]): even lower
intracellular levels of ZAT, normalized densitometry (ZAT [2]; 1 mM): Levels are lower
Compound: COc1ccc(C(O)C(=O)NNC(=O)N[C@@H](CO)C(N)=O)cc1O (stereo partly drawn) [Compound V]
intracellular levels of ZAT (ZAT [2]; 1 mM, FIG. 13 western blot): significant reduction in ZAT levels intracellularly
extracellular levels of ZAT and alpha-1-antitrypsin activity (ZAT [5]): higher activity levels with higher treatment
